Measurements as given in patent US6747044B2, “Neurokinin antagonists” (Boehringer Ingelheim Pharma KG, priority 2000, dated 2004).

target: T1, NK1 receptor (Cavia porcellus, UniProt P30547); experiment: Inhibition of NK1-induced fall in blood pressure in anaesthetised guinea pigs (duration of activity); format: in vivo, guinea pig; settings: test substance intraduodenal, NK1-agonist 0.2 μmol/kg i.v. every 30 min for 6 to 8 hours
T1 construct: Guinea pigs (300-500 g) were anaesthetised with pentobarbital (50 mg/kg i.p.); from tissue; host or cells: whole anaesthetised guinea pig (in vivo)
Experimental: Determining the Duration of Activity
Inhibition of NK1-induced Fall in Blood Pressure in Anaesthetised Guinea Pigs
Guinea pigs (300-500 g) were anaesthetised with pentobarbital (50 mg/kg i.p.) and prepared for duodenal administration of the test substances and for measurement of the arterial blood pressure. A temporary drop in blood pressure was induced by the intravenous administration of an NK1-agonist (0.2 μmol/kg at 30 minute intervals). After the basal value of the blood pressure had been determined the test substances were administered by intraduodenal route. Then the NK1-agonist was administered intravenously every 30 min for 6 to 8 hours. The results were expressed as a percentage inhibition in the NK1-induced fall in blood pressure and the ED50 values were calculated by regression analysis.

T1 sequence (P30547 whole entry): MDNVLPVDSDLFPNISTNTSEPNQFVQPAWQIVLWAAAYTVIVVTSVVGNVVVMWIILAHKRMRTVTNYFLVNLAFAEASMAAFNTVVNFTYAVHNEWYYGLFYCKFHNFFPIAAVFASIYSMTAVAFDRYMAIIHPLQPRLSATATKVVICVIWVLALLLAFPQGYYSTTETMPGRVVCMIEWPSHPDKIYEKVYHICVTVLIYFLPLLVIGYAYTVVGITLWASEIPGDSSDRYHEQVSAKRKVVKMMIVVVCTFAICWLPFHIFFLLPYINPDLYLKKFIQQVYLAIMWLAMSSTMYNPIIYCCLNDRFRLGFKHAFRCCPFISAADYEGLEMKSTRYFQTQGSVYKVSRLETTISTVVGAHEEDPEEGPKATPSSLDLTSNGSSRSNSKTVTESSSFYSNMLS

Row | Compound | Duration of activity
1 | CN(CCc1cc(C(F)(F)F)cc(C(F)(F)F)c1)C(=O)C(c1ccccc1)N1CCC(N(C)CCCO)CC1 (stereo not shown) [Example 1, N-[2-(3,5-Bis-trifluoromethyl-phenyl)-ethyl]-2-{4-[(3-hydroxy-propyl)-methyl-amino]-piperidine-1-yl}-N-methyl-2-phenyl-acetamide] | >360 min
2 | CN(CCc1cc(C(F)(F)F)cc(C(F)(F)F)c1)C(=O)C(c1ccccc1)N1CCC(NC(CO)CO)CC1 (stereo not shown) [Example 2, N-[2-(3,5-bis-trifluoromethyl-phenyl)-ethyl]-2-[4-(2-hydroxy-1-hydroxymethyl-ethylamino)-piperidin-1-yl]-N-methyl-2-phenylacetamide] | >360 min
3 | CN(CCc1cc(C(F)(F)F)cc(C(F)(F)F)c1)C(=O)C(c1ccccc1)N1CCC(N(C)CC2CC2)CC1 (stereo not shown) [Example 3, N-[2-(3,5-bis-trifluoromethyl-phenyl)-ethyl]-2-[4-(cyclopropylmethyl-methyl-amino)-piperidin-1-yl]-N-methyl-2-phenyl-acetamide] | >360 min
4 | CN(CCc1cc(C(F)(F)F)cc(C(F)(F)F)c1)C(=O)C(c1ccccc1)N1CCC(N(CCO)CCCO)CC1 (stereo not shown) [Example 4, N-[2-(3,5-bis-trifluoromethyl-phenyl)-ethyl]-2-{4-[(2-hydroxy-ethyl)-(3-hydroxy-propyl)-amino]-piperidin-1-yl}-N-methyl-2-phenyl-acetamide] | >360 min
5 | CN(CCc1cc(C(F)(F)F)cc(C(F)(F)F)c1)C(=O)[C@H](c1ccccc1)N1CCC(N(CCCO)CC2CC2)CC1 [Example 5, (S)—N-[2-(3.5-bis-trifluoromethyl-phenyl)-ethyl]-2-{4-[cyclopropylmethyl-(3-hydroxy-propyl)-amino]-piperidin-1-yl}-N-methyl-2-phenyl-acetamide] | >360 min
6 | CN(CCc1cc(C(F)(F)F)cc(C(F)(F)F)c1)C(=O)[C@H](c1ccccc1)N1CCC(N(C)CCO)CC1 [Example B-1, reference compound] | 120 min
7 | CN(CCc1cc(C(F)(F)F)cc(C(F)(F)F)c1)C(=O)[C@H](c1ccccc1)N1CCC(N(CCO)CCO)CC1 [Example B-4, reference compound] | 120 min
